{"source": "patent US11607417B2", "about": "“Uses of celastrol in preventing and/or treating cholestatic liver disease and liver fibrosis” (KUNMING INSTITUTE OF BOTANY, THE CHINESE ACADEMY OF SCIENCES, priority 2017, dated 2023)", "key": {"[1]": {"system": "TAA-induced cholestatic liver injury", "experiment": "TAA-induced mouse cholestatic liver injury (Example 2)", "assay_type": "in vivo, C57BL/6 mice", "method": "A total of 18 male C57BL/6 mice were divided into three groups: blank group (n=6); model group (n=6); treatment group (n=6).\n(§1) Celastrol was dissolved in a solvent to obtain a solution of celastrol at a concentration of 2 mg/mL, wherein the solvent consisted of 1% DMSO, 2% Tween, and 97% water (v:v:v). For intragastrical administration, the dosage of celastrol was 10 mg/kg·d. TAA was dissolved in 0.9% NaCl solution to prepare a NaCl solution of TAA at a concentration of 60 mg/kg, and the dosage of TAA for intraperitoneal administration was 300 mg/kg.\nThe treatment group was administered intragastrically with the celastrol solution at a dosage of 10 mg/kg·d for 4 consecutive days. At the same time, the blank group and the model group were intragastrically administered with the same dosage of a solvent, wherein the solvent consisted of 1% DMSO, 2% Tween 80 and 97% water (v:v:v), and the solvent was administrated for 4 consecutive days.\nOn the 4th day, TAA model was established. 1 Hour after administration with the solvent or celastrol solution, the mice of the treatment group and the model group were respectively intraperitoneally injected with the NaCl solution of TAA at a dosage of 300 mg/kg to induce cholestatic liver injury. 24 Hours after treatment with TAA, the mice were sacrificed by CO2 anesthesia, and plasma samples and liver samples were collected. The eyeballs of the mice were taken for blood collection. The plasma samples were placed on ice for 1-2 hours, centrifuged at 4000 g for 5 minutes at 4° C., and the supernatant plasma samples were taken to determine the plasma biochemical indicators, the levels of ALT, AST and ALP.\nAt the same time, plasma samples were prepared: 10 μL of plasma sample was taken, mixed with 190 μL of 67% acetonitrile (containing 5 μM internal standard chlorpropamide), centrifuged at 18000 g for 20 minutes at 4° C., and the supernatant was taken for sample injection.\nLiver samples were prepared: 100 mg liver samples were mixed well with 1 mL of 50% acetonitrile (containing 5 μM internal standard chlorpropamide), shaken for 20 minutes at room temperature, and then centrifuged at 18000 g for 20 minutes at 4° C. Thereafter, 200 μL of the supernatant was taken and added with 200 μl of pure acetonitrile, vortexed for 1 minute, centrifuged at 18000 g for 20 minutes at 4° C., and the supernatant was taken for sample injection. The liquid chromatography conditions were as follows: the injection volume was 5 μL; the temperature of column was 45° C.; the flow rate of mobile phase was 0.3 mL/min; the gradient elution was that acetonitrile concentration changed from 2% to 98% during 16 minutes of operation, wherein the mobile phase (water/acetonitrile solution) contained 0.01% formic acid. The elution procedure was as follows: during 0-12th minute, the acetonitrile concentration changed from 2% to 98% at a constant rate; 12-14th minute, the acetonitrile concentration was maintained at 98%; 14-14.1th minute, the acetonitrile concentration changed from 98% to 2%; 14.1-16th minute, the acetonitrile concentration was maintained at 2%. Mass spectrometry conditions were as follows: the temperature of dry gas was 350° C., the pressure of nebulizer was 35 psi, and the voltage of capillary was 3.5 kV.\nPart of the collected mouse liver tissue was fixed overnight in formalin and tissue sections were stained with hematoxylin and eosin (H&E)."}, "[2]": {"system": "TAA-induced cholestatic liver injury under SIRT1 inhibition", "experiment": "Effect of SIRT1 inhibition (EX527) on celastrol activity in TAA model (Example 4)", "assay_type": "in vivo, C57BL/6 mice", "method": "A total of 24 male C57BL/6 mice were divided into four groups: blank group (n=6);\nmodel group (n=6); treatment group (n=6); EX527 group (n=6).\nas §1, with “mg/mL,” for “mg/kg,”, “mg/kg. EX527 was dissolved in corn oil to prepare a corn oil solution of EX527 at a concentration of 2 mg/mL, and the dosage of EX527 for intraperitoneal administration was 10 mg/kg. d.” for “mg/kg.”\nThe EX527 group was simultaneously administered with the celastrol solution and the EX527 corn oil solution for 4 consecutive days. The treatment group was administrated with the celastrol solution and an equal dosage of corn oil for 4 consecutive days. At the same time, the blank group and the model group were administrated with equal dosages of solvent (1% DMSO, 2% Tween 80 and 97% water (v:v:v)) and corn oil, and the solvent was administrated for 4 consecutive days.\nOn the 4th day, the establishment of TAA model was performed. 1 Hour after administration, the mice in the model group, the treatment group and the EX527 group were intraperitoneally injected with TAA at a dosage of 300 mg/kg to induce cholestatic liver injury. 24 Hours after administration with TAA, the mice were sacrificed by CO2 anesthesia, and plasma samples and liver samples were collected. The eyeballs of the mice were taken for blood collection. The plasma samples were placed on ice for 1-2 hours, centrifuged at 4000 g for 5 minutes at 4° C., and the supernatants of plasma samples were taken to determine the plasma biochemical indicators, the levels of ALT, AST, and ALP.\nAt the same time, plasma samples were prepared: 10 μL of plasma sample was mixed with 190 μL of 67% acetonitrile (containing 5 μM internal standard chlorpropamide), centrifuged at 18000 g for 20 minutes at 4° C., and the supernatant was taken for sample injection. The liquid chromatography conditions were as follows: the volume of injection was 5 μL; the temperature of column was 45° C.; the flow rate of mobile phase was 0.3 mL/min; the gradient elution was that acetonitrile concentration changed from 2% to 98% during 16 minutes of operation, wherein the mobile phase (water/acetonitrile solution) contained 0.01% formic acid. The elution procedure was as follows: during 0-12th minute, the acetonitrile concentration changed from 2% to 98% at a constant rate; during 12-14th minute, the acetonitrile concentration was maintained at 98%; during 14-14.1th minute, the acetonitrile concentration changed from 98% to 2%; during 14.1-16th minute, the acetonitrile concentration was maintained at 2%. Mass spectrometry conditions were as follows: the temperature of dry gas was 350° C., the pressure of nebulizer was 35 psi, and the voltage of capillary was 3.5 kV.\nPart of the collected mouse liver tissue was fixed overnight in formalin, and tissue sections were stained with hematoxylin and eosin (H&E)."}, "[3]": {"details": "celastrol 10 mg/kg·d intragastric 4 days, TAA 300 mg/kg i.p. on day 4, 24 h after TAA, n=6"}, "[4]": {"details": "celastrol 10 mg/kg·d intragastric 4 days, TAA 300 mg/kg i.p., 24 h after TAA, n=6"}, "[5]": {"details": "treatment group: celastrol 10 mg/kg·d, TAA model, P<0.05, FIG. 4E"}}, "note": "Where “and” joins values, the source holds several entries; their conditions need not be identical. Equal entries are not always repeated."}
{"smiles": "CC1=C(O)C(=O)C=C2C1=CC=C1[C@@]2(C)CC[C@@]2(C)[C@@H]3C[C@](C)(C(=O)O)CC[C@]3(C)CC[C@]12C", "note": "[celastrol, Celastrol]", "values": [{"measurement": "Liver weight of mouse when sacrificed", "setting": "[1]; [3]", "result": "1.55 g and 1.55 ± 0.21 g"}, {"measurement": "Liver weight/body weight", "setting": "[1]; [3]", "result": "6.48% and 6.48 ± 0.93%"}, {"measurement": "ALP in mouse plasma", "setting": "[1]; [4]", "result": "50.1 ± 7.8", "unit": "U/l"}, {"measurement": "ALT in mouse plasma", "setting": "[1]; [4]", "result": "333.3 ± 211.3", "unit": "U/l"}, {"measurement": "AST in mouse plasma", "setting": "[1]; [4]", "result": "920.3 ± 433.4", "unit": "U/l"}, {"measurement": "H&E staining: area of liver necrosis in liver tissue", "setting": "[1]; celastrol 10 mg/kg·d intragastric, TAA model, FIG. 2C", "result": "significantly reduced"}, {"measurement": "Levels of bile acids in plasma vs TAA model group", "setting": "[1]; ω-MCA, DCA, TβMCA/TαMCA, TCA, THDCA/TUDCA, TCDCA, TDCA, celastrol 10 mg/kg·d, FIG. 2D", "result": "significantly lower"}, {"measurement": "Levels of bile acids in liver vs TAA model group", "setting": "[1]; ω-MCA, β-MCA, CA, DCA, TβMCA/TαMCA, TCA, GCA, TLCA, celastrol 10 mg/kg·d, FIG. 2E", "result": "significantly lower"}, {"measurement": "H&E staining: area of necrosis of liver cells", "setting": "[2]; treatment group: celastrol 10 mg/kg·d intragastric + corn oil, TAA model, FIG. 4C", "result": "significantly reduced"}, {"measurement": "ALT level in plasma vs model group", "setting": "[2]; [5]", "result": "lower"}, {"measurement": "AST level in plasma vs model group", "setting": "[2]; [5]", "result": "lower"}, {"measurement": "Levels of bile acids in plasma vs TAA model group", "setting": "[2]; ω-MCA, DCA, TβMCA/TαMCA, TCA, THDCA/TUDCA, TCDCA, TDCA, treatment group: celastrol 10 mg/kg·d, P<0.05, FIG. 4F", "result": "significantly lower"}]}
